Data as given in patent US10156566B2, “Detoxification of microbial virulence factors in oral cavity” (priority 2015, dated 2018).
“And” between values parts separate entries of the source, which are not always exact repeats. Equal entries are not always repeated. Where two headings read alike, the source gives them in different places.

Tests used:
E. coli LPS [1] = type: biochemical
Procedure: (§1) The Limulus Amebocyte Lysate Assay (LAL) is an assay to determine the total amount of lipopolysaccharide (LPS) in the sample tested (Pierce LAL Chromogenic Endotoxin Quantitation Kit, ThermoFischer Scientific, Waltham, Mass.). The assay was performed following manufacturer's instruction. Ninety-six-well microplates were first equilibrated in a heating block for 10 min at 37° C. Fifty μl each of standard or sample was dispensed into the microplate wells and incubated with the plate covered for 5 min at 37° C. Then 50 μl LAL was added to each well.
(§2) Plates were shaken gently and incubated for 10 min at 37° C. 100 μl of chromogenic substrate was added and incubated for 6 min at 37° C.
(§3) The Thermo Scientific Pierce LAL Chromogenic Endotoxin Quantitation Kit is a quantitative endpoint assay for the detection of LPS, which catalyzes the activation of a proenzyme in the modified Limulus Amebocyte Lysate (LAL). The activated proenzyme then splits p-Nitroaniline (pNA) from the colorless substrate, Ac-Ile-Glu-Ala-Arg-pNA. […] Then 50 μl LAL was added to each well. Plates were shaken gently and incubated for 10 min at 37° C. 100 μl of chromogenic substrate was added and incubated for 6 min at 37° C.

P. gingivalis LPS 1690 = type: biochemical
Procedure: as §1, §2, §3

THP-1 cells = test: LPS stimulated cytokine production in THP-1 cells with citrulline; type: cell-based, human; conditions: 0.3 mM to 9 mM; 300 ng/ml LPS; 24 hours
Procedure: Citrulline was purchased from Sigma-Aldrich (St. Louis, Mo.). THP1-Dual™ cells were purchased from Invivogen (San Diego, Calif.). Cells were cultured following the manufacturer's instruction, as described in EXAMPLE 11. For treatment, 0.3 mM to 9 mM of citrulline were first added to the culture medium. […] After 24 hours of treatment, media was collected and analyzed for cytokine production using 9-plex kit (Meso Scale Diagnostics Rockville, Md.).

E. coli LPS [2] = test: Displacement of LPS from binding to BODIPY TR cadaverine (Tables 3, 9, 12, 13); conditions: E. coli LPS 15 μg/ml
TLR4 [3] = biological target: T1, TLR4 (Homo sapiens, UniProt O00206+Q9Y6Y9); test: cell-based; type: cell-based; parameters: host or cells: HEK-Blue-hTLR4 (HEK 293T); conditions: for Average fluorescence intensity (FI): Control 1027
Target sequence in this assay (O00206 24-839): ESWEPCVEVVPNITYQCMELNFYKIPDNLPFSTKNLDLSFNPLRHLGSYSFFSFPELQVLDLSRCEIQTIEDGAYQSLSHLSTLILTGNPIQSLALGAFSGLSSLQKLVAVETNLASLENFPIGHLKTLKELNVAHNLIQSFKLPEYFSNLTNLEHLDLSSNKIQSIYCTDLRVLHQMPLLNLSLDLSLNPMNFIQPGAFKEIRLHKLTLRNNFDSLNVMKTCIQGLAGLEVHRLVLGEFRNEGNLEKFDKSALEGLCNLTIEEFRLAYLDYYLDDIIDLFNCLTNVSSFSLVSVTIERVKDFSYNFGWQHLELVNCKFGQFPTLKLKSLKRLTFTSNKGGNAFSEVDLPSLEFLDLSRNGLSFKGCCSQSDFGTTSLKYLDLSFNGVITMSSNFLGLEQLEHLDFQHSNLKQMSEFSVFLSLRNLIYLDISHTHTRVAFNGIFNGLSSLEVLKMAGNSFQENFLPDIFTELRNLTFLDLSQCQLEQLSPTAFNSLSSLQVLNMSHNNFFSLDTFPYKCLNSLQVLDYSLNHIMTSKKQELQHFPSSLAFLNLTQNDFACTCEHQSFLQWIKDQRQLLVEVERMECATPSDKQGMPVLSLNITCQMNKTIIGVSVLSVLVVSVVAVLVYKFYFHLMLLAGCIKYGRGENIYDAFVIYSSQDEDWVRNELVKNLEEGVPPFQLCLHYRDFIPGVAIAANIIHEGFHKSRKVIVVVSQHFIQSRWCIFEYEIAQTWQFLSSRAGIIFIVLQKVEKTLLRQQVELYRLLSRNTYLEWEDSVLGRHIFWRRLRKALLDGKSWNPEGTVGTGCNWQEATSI
Target sequence in this assay (Q9Y6Y9 17-160): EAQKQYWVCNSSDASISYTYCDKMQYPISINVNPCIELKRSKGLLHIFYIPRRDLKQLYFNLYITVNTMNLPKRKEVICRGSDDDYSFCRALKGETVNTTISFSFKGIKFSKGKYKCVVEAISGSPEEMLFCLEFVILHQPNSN
Procedure: Stannous fluoride, Cetylpyridium chloride (CPC) and Triclosan were purchased from Sigma-Aldrich, St. Louis, Mo. […] The growth medium: DMEM, with 4.5 g/l glucose, supplemented 10% fetal bovine serum, 50 U/ml penicillin and streptomycin, 100 μg/ml Normocin, and 2 mM L-glutamine, purchased from Thermo Fisher, Waltham, Mass.

E. coli LPS [4] = system: E. coli LPS
Procedure: 0.7 ul of the sample solution was spotted on a MALDI plate, air-dried, and analyzed in negative ion mode using a MALDI-TOF/TOF 4800 plus system (AB-Sciex, Framingham, Mass., USA). Typical data acquisition uses mass scan range 500-3000 Da and a laser power of 4500. Data was collected in an automated fashion using random sampling over the sample spot with 250 shots per subspectrum and a total of 2500 shots per spectrum.

TLR2 = biological target: T2, TLR2 (Homo sapiens, UniProt O60603); type: cell-based; conditions: stannous 1000 uM; P. gingivalis LPS
T2 construct: host or cells: human HEK 293T cells
T2 sequence (O60603 21-784): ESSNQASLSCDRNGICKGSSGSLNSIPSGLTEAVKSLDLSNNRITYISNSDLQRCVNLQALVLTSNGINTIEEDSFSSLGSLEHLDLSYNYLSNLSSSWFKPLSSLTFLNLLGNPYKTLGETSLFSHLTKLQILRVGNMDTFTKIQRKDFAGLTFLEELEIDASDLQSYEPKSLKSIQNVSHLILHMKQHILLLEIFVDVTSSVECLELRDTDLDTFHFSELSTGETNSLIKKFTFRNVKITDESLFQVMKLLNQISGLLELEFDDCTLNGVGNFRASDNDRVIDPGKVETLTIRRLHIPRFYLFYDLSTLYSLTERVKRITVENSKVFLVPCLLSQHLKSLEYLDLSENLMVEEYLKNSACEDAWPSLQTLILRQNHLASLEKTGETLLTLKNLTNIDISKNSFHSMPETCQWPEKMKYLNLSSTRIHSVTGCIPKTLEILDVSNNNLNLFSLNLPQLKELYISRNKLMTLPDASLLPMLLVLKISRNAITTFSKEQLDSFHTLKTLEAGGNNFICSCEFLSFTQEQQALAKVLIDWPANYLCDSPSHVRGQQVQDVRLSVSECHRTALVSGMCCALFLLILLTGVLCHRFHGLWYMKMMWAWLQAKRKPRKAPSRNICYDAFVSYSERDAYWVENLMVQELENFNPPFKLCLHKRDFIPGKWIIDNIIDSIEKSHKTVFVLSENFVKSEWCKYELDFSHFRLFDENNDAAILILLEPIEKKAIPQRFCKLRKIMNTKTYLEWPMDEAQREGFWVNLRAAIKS
Text: The cell line is named here as TLR2-SEAP. The reporter gene encodes a secreted enzyme, called embryonic alkaline phosphatase or SEAP. The SEAP reporter is placed under the control of the interferon-β minimal promoter fused to five NFkB and AP-1-binding sites. Furthermore, a CD14 co-receptor gene was transfected into the reporter gene cells expressing TLR2, as CD14 has been identified as a co-receptor for TLR2 ligands to enhance the TLR response. The CD14 co-receptor is needed to transfer LTA to TLR2 receptors. The recombinant TLR2 binds its ligand, or distinct pathogen-associated molecule, initiates a chain of responses, leading to recruitment of NFkB and API transcription factors to the reporter gene promoter, which induce expression of SEAP.
For treatment with LTA, wells of a 96-well plate were seeded with 10,000 cells/well in 100 μL of growth medium. […] On day 4, medium (100 μL) was changed to DMEM medium without fetal calf serum. […] Samples were taken 24 hours later, following addition of samples. Expression of the reporter gene (SEAP) was quantified with a commercially available kit (SEAP Reporter Gene Assay of Cayman Chemical Co., Ann Arbor, Mich.).

[5] = system: IRF-luciferase reporter gene; test: THP1-Dual reporter cells, IRF-Lucia luciferase; type: cell-based, human
Text: (§4) THP1 NFkB-SEAP and IRF-Lucia™ Reporter Monocytes were purchased from Invivogen, San Diego, Calif. THP1-Dual cells were derived from the human THP-1 monocyte cell line by stable integration of two inducible reporter constructs. THP1-Dual cells feature the Lucia gene under the control of an ISG54 (interferon-stimulated gene) minimal promoter in conjunction with five interferon-stimulated response elements. THP1-Dual cells also express a SEAP reporter gene driven by an IFN-b minimal promoter fused to five copies of the NF-kB consensus transcriptional response element and three copies of the c-Rel binding site. As a result, THP1-Dual cells allow the simultaneous study of the NFkB pathway, by monitoring the activity of SEAP, and the interferon regulatory factor (IRF) pathway, by assessing the activity of Lucia (IRF-Luc). Both reporter proteins are readily measurable in the cell culture supernatant.
(§5) Cells were passed every 3 to 4 days by inoculating 300,000-500,000 cells/ml into a fresh T75 flask with 15 ml of fresh growth medium. […] After incubation for 18 hours at 37° C. and 5% CO2, secreted luciferase and SEAP were quantified with commercially available assay kits (QUANTI-Luc of Invivogen, San Diego, Calif. for luciferase; SEAP Reporter Gene Assay of Cayman Chemical Co., Ann Arbor, Mich. for SEAP).

NFkB-SEAP reporter gene = test: THP1-Dual reporter cells, NFkB-SEAP; type: cell-based, human; conditions: dose dependent
Text: as §4, §5

human primary monocytes = test: LPS-stimulated cytokine production in human primary monocytes; type: cell-based
Procedure: The primary human monocytes were purchased from Astarte Biologics (Bothell, Wash.). […] The medium was harvested at 24 hours after adding LPS and SnF2, and analyzed for proinflammatory cytokines in a kit following manufacturer's instruction (Meso Scale Diagnostics, Rockville, Md.).

TLR4 [6] = biological target: T1, TLR4; type: cell-based; parameters: host or cells: human HEK 293T cells; conditions: for reduction of P. gingivalis LPS activation on the TLR4 reporter system: P. gingivalis LPS 500 ng/ml
Target sequence in this assay (O00206 24-839): as the sequence (O00206 24-839) above
Target sequence in this assay (Q9Y6Y9 17-160 limits assumed): as the sequence (Q9Y6Y9 17-160) above
Text: The cell line is named here as TLR4-SEAP. The reporter gene encodes a secreted enzyme, called embryonic alkaline phosphatase or SEAP. The SEAP reporter is placed under the control of an IL-12 p40 minimal promoter fused to five NF-κB and AP-1-binding sites. Furthermore, the TLR4-SEAP cell line also contains a CD14 co-receptor gene, which is needed to transfer LPS to TLR4 receptors. The recombinant TLR binds its ligand, or distinct pathogen-associated molecule, initiates a chain of responses, leading to recruitment of NFkB and API transcription factors to the reporter gene promoter, which induce expression of SEAP.
For treatment, wells of a 96-well plate were seeded with 10,000 cells/well in 100 μL of growth medium. […] On day 4, medium was changed to assay medium (90 μl), which is the DMEM medium without fetal calf serum. […] 10 μl of the bacteria, LPS and culture medium of bacterial growth were added to the TLR4-SEAP cells. Samples were taken 24 hours later, following addition of LPS, bacteria, and culture medium. Expression of the reporter gene (SEAP) was quantified with a commercially available kit (SEAP Reporter Gene Assay of Cayman Chemical Co., Ann Arbor, Mich.).
EC50 was calculated using GraphPad Prism software (GraphPad Software, La Jolla, Calif.).
Tests were conducted to understand whether stannous fluoride could reduce LPS's ability to trigger proinflammatory responses in host cells.

TLR5 = biological target: T3, TLR5 (Homo sapiens, UniProt O60602); test: TLR5-NFkB-SEAP reporter gene assay in HEK 293T cells; type: cell-based
T3 construct: host or cells: human HEK 293T cells
T3 sequence (O60602 21-858): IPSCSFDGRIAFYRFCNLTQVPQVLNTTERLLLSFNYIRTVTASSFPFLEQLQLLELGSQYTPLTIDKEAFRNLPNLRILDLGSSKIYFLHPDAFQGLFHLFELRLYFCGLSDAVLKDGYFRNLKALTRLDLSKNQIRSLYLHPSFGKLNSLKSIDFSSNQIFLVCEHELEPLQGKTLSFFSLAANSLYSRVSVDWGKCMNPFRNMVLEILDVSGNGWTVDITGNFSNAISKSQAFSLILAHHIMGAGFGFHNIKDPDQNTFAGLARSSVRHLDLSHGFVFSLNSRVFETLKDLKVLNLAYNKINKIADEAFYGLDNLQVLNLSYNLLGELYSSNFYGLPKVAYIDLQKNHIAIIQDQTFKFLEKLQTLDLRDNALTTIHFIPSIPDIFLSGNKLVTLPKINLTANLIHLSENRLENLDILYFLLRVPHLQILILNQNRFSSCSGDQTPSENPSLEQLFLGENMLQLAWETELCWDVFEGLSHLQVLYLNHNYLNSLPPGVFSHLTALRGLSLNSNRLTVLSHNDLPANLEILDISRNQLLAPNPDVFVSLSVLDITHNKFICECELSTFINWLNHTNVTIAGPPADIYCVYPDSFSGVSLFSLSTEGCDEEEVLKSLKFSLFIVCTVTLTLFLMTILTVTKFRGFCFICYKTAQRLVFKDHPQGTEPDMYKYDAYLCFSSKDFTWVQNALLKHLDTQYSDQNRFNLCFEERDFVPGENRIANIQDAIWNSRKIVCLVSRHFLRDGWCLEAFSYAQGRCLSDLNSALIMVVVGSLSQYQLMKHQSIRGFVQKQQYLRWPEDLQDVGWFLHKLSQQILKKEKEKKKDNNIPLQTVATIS
Procedure: The cell line was named as TLR5-NFkB-SEAP.
S. subtilis and S. aureus flagellin were added at a range of concentration from 0.97 ng to 1 μg/ml. […]

| Molecule | LPS displacement % Mean (E. coli LPS [2]) | LPS displacement % Reading 1 (E. coli LPS [2]) | LPS displacement % Reading 2 (E. coli LPS [2]) | LPS displacement % Reading 3 (E. coli LPS [2]) | inhibition (Lipopolysaccharide) | further results |
| --- | --- | --- | --- | --- | --- | --- |
| [O-]n1ccccc1=S.[O-]n1ccccc1=S.[Zn+2] [1-Hydroxypyridine-2-thone zinc salt] | – | – | – | – | – | Inhibition of LAL activity % (E. coli LPS [1]): 2% and 6%; Inhibition of LAL activity % (P. gingivalis LPS 1690): 0% |
| NC(=O)NCCC[C@H](N)C(=O)O [Citrulline] | – | – | – | – | – | effect on P. gingivalis LPS 1690 stimulated proinflammatory cytokine production (IL-6, TNF-α, IL-12p70, IL-10, IL-2, IFN-r, IL-1β) (THP-1 cells): inhibited |
| [Cu+].[I-] [Copper(I) iodide] | 18% | 23% | 12% | 20% | – | – |
| C=CC[N+](C)(C)CC=C.[Cl-] [Diallyldimethylammonium chloride] | 35% | 40% | 38% | 28% | – | – |
| CCCCCCCCCCCCCCCCCC(=O)NCCN(CC)CC [Diethylaminoethyl stearamide] | 66% | 77% | 62% | 58% | 97.4% | – |
| CC(C)CCOC(=O)c1ccccc1 [Isopentyl benzoate] | 18% | 22% | – | 13% | – | – |
| CCCCC/C=C\C/C=C\CCCCCCCC(=O)OC [Methyl linoleate] | 88% | ~100% | 53% | ~100% | 36.9% | – |
| CCCCCCCCCCCCCC[n+]1ccc(C)cc1.[Cl-] [Myristyl-γ-picolinium chloride] | ~100% | ~100% | ~100% | ~100% | 96.2% and 96% | – |
| CCCCCCCCCCCCN(C)C [N,N-Dimethyldodecylamine] | 22% | 36% | 18% | 13% | – | – |
| CCCCCCCCCCCC[n+]1ccccc1.[Cl-] [N-Laurylpyridinium chloride] | 60% | 66% | 56% | 59% | 96.5% | – |
| CCCCCCCCCCCCCC(=O)NCC(=O)O [N-Myristoylglycine] | 76% | ~100% | 39% | 74% | 91.4% | – |
| CCCCCCCCCCCCCCCCCC(=O)OCCNC(=O)C[n+]1ccccc1.[Cl-] [Steapyrium chloride] | ~100% | ~100% | 100% | ~100% | 100% | – |
| CCCCCCCCCCCCCCCCCC(=O)NCCCN(C)C [Stearylamidopropyldimethylamine] | 77% | 85% | 71% | 74% | 83.8% | – |
| [F][Sn][F] [Tin (II) fluoride] | – | – | – | – | – | Inhibition of LAL activity % (E. coli LPS [1]): 92% and 87%; Inhibition of LAL activity % (P. gingivalis LPS 1690): 60% and 49%; fluorescence intensity of labeled LPS on HEK-Blue-hTLR4 cells (TLR4 [3]): reduced fluorescence intensity significantly; % of control (TLR4 [3]; 500 μM): 64.5%; Average fluorescence intensity (FI) (TLR4 [3]; 500 μM): 662; binding to E. coli LPS (MALDI-TOF) (E. coli LPS [4]): binds to E. coli LPS; level of P. gingivalis induction of TLR-2 (TLR2): decreased; luciferase production in THP-1 dual cells stimulated by E. coli LPS [5]: inhibited; expression of the NFKB-SEAP reporter gene by LPS and LTA in THP-1 dual cells (NFkB-SEAP reporter gene): inhibited; cytokine production stimulated by LPS in human primary monocytes (human primary monocytes; 100 ng E. coli LPS or P. gingivalis LPS 1690, 24 hours): inhibited; suppression of LPS on IL-8 production in human primary monocytes (human primary monocytes; dose-dependent): reversed; Displacement % of LPS from binding to BODIPY TR cadaverine (E. coli LPS [2]; 0.63 mM): 12.69%; reduction of P. gingivalis LPS activation on the TLR4 reporter system (TLR4 [6]; 3.2 mM): about 50%; reduction of P. gingivalis LPS activation on the TLR4 reporter system (TLR4 [6]; […]): about 50%; level of E. coli induction of TLR-4 (TLR4 [6]; stannous 500 uM or higher, 100 ng/ml E. coli LPS): decreased |
| Oc1cc(Cl)ccc1Oc1ccc(Cl)cc1Cl [Triclosan (irgasan)] | – | – | – | – | – | Inhibition of LAL activity % (E. coli LPS [1]): 10% and 0%; Inhibition of LAL activity % (P. gingivalis LPS 1690): 0%; Average fluorescence intensity (FI) (TLR4 [3]; 500 μM): 1021; remaining activity at 500 µM (TLR4 [3]; HEK-Blue hTLR4, read-out: % of control): 99.4% |
| C=CCCCCCCCCC=O [Undecylenic aldehyde] | 22% | 29% | – | 15% | – | – |
| CCCCCC(C=O)=Cc1ccccc1 [alpha-Amylcinnamaldehyde] | 15% | 17% | – | 13% | – | – |
| CCCCCCCC/C=C\CCCCCCCC(=O)O [cis-Oleic acid] | 31% | 54% | – | 9% | 61% | – |
| O=C([O-])C(=O)[O-].[K+].[K+] [potassium oxalate] | – | – | – | – | – | Inhibition of LAL activity % (E. coli LPS [1]): 1% and 6%; Inhibition of LAL activity % (P. gingivalis LPS 1690): 8% and 0% |
| [F-].[Na+] [sodium fluoride] | – | – | – | – | – | Inhibition of LAL activity % (E. coli LPS [1]): 4% and 5%; Inhibition of LAL activity % (P. gingivalis LPS 1690): 0% |
| [Cl][Sn][Cl] [stannous chloride] | – | – | – | – | – | Inhibition of LAL activity % (E. coli LPS [1]): 89% and 65% |
| O.O.O=C([O-])CC(O)(CC(=O)[O-])C(=O)[O-].O=C([O-])CC(O)(CC(=O)[O-])C(=O)[O-].[Zn+2].[Zn+2].[Zn+2] [zinc citrate, dihydrate] | – | – | – | – | – | Inhibition of LAL activity % (E. coli LPS [1]; citrate, dihydrate): 104% and 82%; Inhibition of LAL activity % (P. gingivalis LPS 1690; citrate, dihydrate): 104% and 57% |
| Flagellin from B. subtilis: flagellin from B. subtilis | – | – | – | – | – | EC50 of flagellin on TLR5 (TLR5; at 5 hours): 0.02 ng/mL; EC50 of flagellin on TLR5 (TLR5; at 23 hours): 0.014 ng/mL |
| iron(iii) chloride hexahydrate | ~100% | ~100% | 100% | ~100% | 58.1% | – |
